Reference: patent US20090181972A1, “Novel Inhibitors of Cysteine Proteases, the Pharmaceutical Compositions Thereof and their Therapeutic Applications” (priority 2005, published 2009)

Key:
USP7 = target: T1, USP7 (Homo sapiens, UniProt Q93009); assay: USP7 activity assay; assay type: biochemical; conditions: 400 nM Ub-AMC, 152 pM enzyme; pre-incubated 30 minutes at 25° C., 60 minutes at 37° C.; sigmoidal fit; read-out: USP 7
T1 construct: His tag (pFastBac-HT vector) (N); made in house; host or cells: Sf9 or High Five insect cells (baculovirus)
Text: The cDNA encoding USP7 was obtained by PCR amplification from placenta mRNA. USP7 cDNA was subcloned by PCR into a baculovirus expression vector (pFastBac-HT; Invitrogen). A cDNA encoding a mutated USP7 was generated by mutagenic PCR. The corresponding protein encodes a cysteine to alanine substitution at residue 223. The sequences were ascertained by sequencing of the entire open reading frame. Bacmids encoding USP7 were generated following DH10bac transposition. The corresponding bacmids were transfected into insect cells (Sf9). Viruses were recovered from culture supernatant and amplified twice. Insect cells (Sf9 or High Five; lnvitrogen) were infected for 72 hours. Total cell lysates were harvested and lyzed in lysis buffer (Tris HCl 50 mM pH 7.6; 0.75 % NP40; 500 mM NaCl; 10% glycerol; 1 mM DTT; 10 mM imidazole; Protease Inhibitor Cocktail; AEBSF 20 μg.ml^−1; Aprotinin 10 μg.ml^−1). Proteins were affinity purified on metal affinity resins (Talon Metal affinity resin; BD Biosciences). Bound materials were extensively washed in wash buffer (50 mM Sodium Phosphate pH 7.0; 300 mM NaCl; 10 mM imidazole; 0.5% Triton X-100; 10% glycerol) and eluted from the resin in 250 mM imidazole-containing wash buffer. Proteins were dialyzed in dialysis buffer (Tris HCl pH 7.6 20 mM; NaCl 200 mM; DTT 1 mM; EDTA 1 mM; 10% Glycerol). Proteins purifications were analyzed on 4-12% NuPAGE (Invitrogen).
USP7 was diluted in USP buffer (50 mM Tris HCl; 0.5 mM EDTA; 5 mM DTT; 0.01 % Triton X-100; Bovine Serum Albumin 0.05 mg.ml^−1 pH 7.6). Compounds stocks (100 mM) were stored at −20° C. in DMSO. Compounds were tested at the following final concentrations: 100 μM; 33.3 μM; 11.1 μM; 3.7 μM; 1.23 μM; 412 nM; 137 nM; 45.7 nM; 15.2 nM; 5 nM.
Reactions were performed as duplicates in Black LJL 96 well plates (HE microplates; Molecular Devices; 20 μl final reaction volume). The substrate concentration for USP7 was 400 nM Ub-AMC (Chem. Biol., 2003, 10, p. 837-846) (Boston Biochem). The concentrations of the enzyme (USP7) in specificity assays was 152 pM. The concentrations were determined in order to perform specificity assays under initial velocities at fixed substrate concentration. Compounds were pre-incubated with enzymes for 30 minutes at 25° C. Reactions were initiated by addition of substrate to the plates containing the enzymes (+/− compounds) diluted in assay buffer. Reactions were incubated for 60 minutes at 37° C. Reactions were stopped by adding acetic acid (100 mM final). Readings were performed on a Pherastar Fluorescent Reader (BMG). λ Emission 380 nm; λ Excitation=460 nm. Data (mean values +/− standard deviation) were analyzed as % of control (no compound) and plotted as percentage versus the Log of the compound concentration using GraphPad (Prism). Data were fitted to a sigmoidal model (variable slope).

Caspase 3 = target: T2, Caspase 3 (Homo sapiens, UniProt P42574); assay: Caspase 3 activity assay; assay type: biochemical; conditions: 500 nM Ac-DEVD-AMC, 3.2 nM enzyme; pre-incubated 30 minutes at 25° C., 60 minutes at 37° C.; sigmoidal fit
T2 sequence (P42574 29-175 limits assumed): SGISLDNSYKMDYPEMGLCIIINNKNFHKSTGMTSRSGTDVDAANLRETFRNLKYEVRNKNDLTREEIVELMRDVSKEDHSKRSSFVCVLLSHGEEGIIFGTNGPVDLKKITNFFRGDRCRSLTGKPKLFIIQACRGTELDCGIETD
T2 sequence (P42574 176-277 limits assumed): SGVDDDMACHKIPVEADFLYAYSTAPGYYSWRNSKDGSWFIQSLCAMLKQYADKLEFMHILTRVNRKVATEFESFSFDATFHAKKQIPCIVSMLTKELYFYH
Description: Caspase 3 was diluted in Caspase 3 buffer (100 mM Hepes pH 7.5; 10% sucrose; 0.1% CHAPS). Compounds stocks (100 mM) were stored at −20° C. in DMSO. Compounds were tested at the following final concentrations: 100 μM; 33.3 μM; 11.1 μM; 3.7 μM; 1.23 μM; 412 nM; 137 nM; 45.7 nM; 15.2 nM; 5 nM. Reactions were performed as duplicates in Black LJL 96 well plates (HE microplates; Molecular Devices; 20 μl final reaction volume). The substrate concentration for caspase 3 specificity assay was 500 nM (Ac-DEVD-AMC; Promega). The concentration of the enzyme (Caspase 3) in specificity assays was 3.2 nM. The concentrations were determined in order to perform specificity assays under initial velocities at fixed substrate concentration. Compounds were pre-incubated with enzymes for 30 minutes at 25° C. Reactions were initiated by addition of substrate to the plates containing the enzymes (+/− compounds) diluted in assay buffer. Reactions were incubated for 60 minutes at 37° C. Reactions were stopped by adding acetic acid (100 mM final). Readings were performed on a Pherastar Fluorescent Reader (BMG). δ Emission 380 nm; δ Excitation=460 nm. Data (mean values +/− standard deviation) were analyzed as % of control (no compound) and plotted as percentage versus the Log of the compound concentration using GraphPad (Prism). Data were fitted to a sigmoidal model (variable slope).

T1 sequence (Q93009 whole entry): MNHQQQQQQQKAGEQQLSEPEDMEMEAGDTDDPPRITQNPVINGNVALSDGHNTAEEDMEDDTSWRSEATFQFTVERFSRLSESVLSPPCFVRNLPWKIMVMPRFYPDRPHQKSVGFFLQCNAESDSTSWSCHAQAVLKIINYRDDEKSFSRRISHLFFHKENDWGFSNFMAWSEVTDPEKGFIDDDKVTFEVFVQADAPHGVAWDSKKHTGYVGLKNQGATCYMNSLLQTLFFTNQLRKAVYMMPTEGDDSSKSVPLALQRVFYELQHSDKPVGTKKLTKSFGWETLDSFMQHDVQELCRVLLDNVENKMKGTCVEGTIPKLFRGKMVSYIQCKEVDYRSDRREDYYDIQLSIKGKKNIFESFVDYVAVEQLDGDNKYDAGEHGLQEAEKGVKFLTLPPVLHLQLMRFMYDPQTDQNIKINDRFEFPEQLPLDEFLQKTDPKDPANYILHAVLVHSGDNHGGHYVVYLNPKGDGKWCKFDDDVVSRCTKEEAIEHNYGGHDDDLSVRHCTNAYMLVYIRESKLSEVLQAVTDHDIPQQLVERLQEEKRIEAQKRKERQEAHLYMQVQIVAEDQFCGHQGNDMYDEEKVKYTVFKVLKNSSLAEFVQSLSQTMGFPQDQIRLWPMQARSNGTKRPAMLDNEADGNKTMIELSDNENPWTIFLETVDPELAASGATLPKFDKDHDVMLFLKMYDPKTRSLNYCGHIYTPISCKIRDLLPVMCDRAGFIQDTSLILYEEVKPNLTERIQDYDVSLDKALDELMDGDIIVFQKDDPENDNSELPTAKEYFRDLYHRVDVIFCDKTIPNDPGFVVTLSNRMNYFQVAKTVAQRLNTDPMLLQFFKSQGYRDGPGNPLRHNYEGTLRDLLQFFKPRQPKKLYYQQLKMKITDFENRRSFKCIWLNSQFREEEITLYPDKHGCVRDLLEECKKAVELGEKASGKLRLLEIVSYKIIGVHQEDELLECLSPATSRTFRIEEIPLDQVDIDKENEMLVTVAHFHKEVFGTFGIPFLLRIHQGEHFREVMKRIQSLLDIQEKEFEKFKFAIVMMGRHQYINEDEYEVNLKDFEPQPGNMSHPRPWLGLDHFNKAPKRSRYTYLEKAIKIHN

| Compound | IC50 (USP7) | IC50 (Caspase 3) |
| --- | --- | --- |
| CC(C)c1nnc2nc3c(nn12)C(=O)c1ccccc1-3 [Example 1l/A, 1-lsopropyl-2,3,4,10,10a-pentaaza-cyclopenta[b]fluoren-9-one] | – | 5 µM |
| COCCOCCOCc1nnc2nc3c(nn12)C(=O)c1ccccc1-3 [Example 1n/A, 1-[2-(2-Methoxy-ethoxy)-ethoxymethyl]-2,3,4,10,10a-pentaaza-cyclopenta[b]fluoren-9-one] | 1.2 µM | – |
| COc1cc2c(cc1OC)-c1nn3c(C)nnc3nc1C2=O [Example 5a/B, 6,7-Dimethoxy-3-methyl-1,2,3a,4,10-pentaaza-cyclopenta[b]fluoren-9-one] | 0.525 µM | – |
| CCc1nnc2nc3c(nn12)C(=O)c1cc(OC)c(OC)cc1-3 [Example 5b/A, 1-Ethyl-6,7-dimethoxy-2,3,4,10,10a-pentaaza-cyclopenta[b]fluoren-9-one] | 13.3 µM | 5.2 µM |
| CCc1nnc2nc3c(nn12)-c1cc(OC)c(OC)cc1C3=O [Example 5b/B, 3-Ethyl-6,7-dimethoxy-1,2,3a,4,10-pentaaza-cyclopenta[b]fluoren-9-one] | 1.05 µM | 0.314 µM |
| CCCc1nnc2nc3c(nn12)-c1cc(OC)c(OC)cc1C3=O [Example 5c/B, 6,7-Dimethoxy-3-propyl-1,2,3a,4,10-pentaaza-cyclopenta[b]fluoren-9-one] | 0.936 µM | – |
| CCc1nnc2nc3c(nn12)-c1c(OC)ccc(OC)c1C3=O [Example 6/B, 3-Ethyl-5,8-dimethoxy-1,2,3a,4,10-pentaaza-cyclopenta[b]fluoren-9-one] | 3.08 µM | – |

More lines, in order of falling IC50 (USP7), values ahead:

| IC50 (USP7) | IC50 (Caspase 3) | Compound |
| --- | --- | --- |
| 2.8 µM | 1.51 µM | 6-(7)-Chloro-1-methyl-2,3,4,10,10a-pentaaza-cyclopenta[b]fluoren-9-one [Example 3/A] |
| 0.82 µM | – | CC(C)c1nnc2nc3c(nn12)-c1ccccc1C3=O [Example 1l/B, 3-Isopropyl-1,2,3a,4,10-pentaaza-cyclopenta[b]fluoren-9-one] |
| 0.226 µM | – | O=C1c2ccccc2-c2nn3c(C(F)(F)F)nnc3nc21 [Example 1m/B, 3-Trifluoromethyl-1,2,3a,4,10-pentaaza-cyclopenta[b]fluoren-9-one] |
